Assay results taken from US20240043808A1, “Screenable Liver Disease Models and Methods” (INSPHERO AG, priority 2016, published 2024).
Entries after “also recorded” stand apart in the source; their conditions may differ. Where two headings read alike, the source gives them in different places. One block for each compound: values may come before it.

What was measured:
[1] = tested on: triple/co-cultured (HepaRG THP1/hTERT-HSC) liver MT; experiment: MTT viability of liver MT stimulated with inflammatory and pro-fibrotic stimuli; format: cell-based, human; conditions: co-cultured microtissues, 14 days of treatment
[2] = tested on: mono-cultured (HepaRG) and triple/co-cultured (HepaRG THP1/hTERT-HSC) liver MT; experiment: Gene expression of fibrotic markers and cytokines in liver MT exposed to LPS, TNF-α and TGF-β1; format: cell-based, human; conditions: for IL-6 gene induction: HepaRG monocultures
Source text: Induction of fibrosis biomarkers, Collagen I and IV upon treatment with inflammation-stimuli LPS or TNF-α and pro-fibrotic TGF-β1 signaling molecule. […] Actin was used as reference gene for each sample. ND: no-detected values. *; P≤0.05.
In order to assess the responsiveness towards prototypic inflammatory stimuli and pro-fibrotic stimuli on a gene-expression level, mono-cultured (HepaRG) and triple/co-cultured (HepaRG THP1/hTERT-HSC) liver MT were stimulated with inflammatory inducers (LPS or TNF-α) and the pro-fibrotic cytokine TGF-β1 to assess the cellular responses. Significant differences in the responses of the two types of MT were observed (FIG. 4). […] For example, mRNA of collagen I was only detected in the co-culture system, but not in the monocultures.

[3] = tested on: Human liver microtissues (+Kupffer cells) with stellate cells; experiment: Inhibition of fibrosis progression, immunohistochemical staining of collagen I; format: cell-based; conditions: 7 days treatment, stellate cell comprising microtissues, in presence of TGF-β1
Source text: FIG. 6: Therapeutic effect of inhibition of pro-fibrotic effector pathways (TGF-βR, TK-R) was confirmed in triple co-culture liver MTs. Human liver MTs prepared form primary human hepatocytes, primary human Kupffer cells and primary human stellate cells where treated with TGF-β1 alone, or in combination with undisclosed inhibitors of i) TGF-β1 receptor, ii) ALK5, and iii) Tyrosine Kinase receptors.
Human liver microtissues (+Kupffer cells) without stellate cells and with either a stellate cell line or primary human stellate cells were treated with a fibrosis inducer (TGF-β1) and in combination with an undisclosed fibrosis inhibitor. […] Even more pronounced is the difference between TGF-β1 treated stellate cell comprising microtissues and TGF-β1/inhibitor treated cultures.

liver microtissues [4] = experiment: Lipid loading of liver microtissues, nile-red staining of lipid accumulation (steatosis); format: cell-based; conditions: for lipid accumulation in microtissues: increasing concentrations of free fatty acid, nile-red staining
Method: FIG. 3A(1): Induction of liver-disease phenotype “steatosis” as determined by lipid accumulation. […] Images are depicted as maximal intensity projections.
FIG. 3A (2): Lipid accumulation in dependency of increasing concentrations of PA, OA or a combination thereof in a molar ratio of 2:1. The total amount of FFA was identical among the groups at a given concentration.
(§1) • Dissolve FFA-free BSA at RT for 1h in H2O for desired stock solution concentration • Dissolve desired amount of OA-Na in 1 mL 0.1 M NaOH-->at 70° C. • Dissolve desired amount of PA-Na 1 mL 0.1 M NaOH-->at 70° • Keep the FFAs on 70° C., while the BSA is placed on 37° C. • Mix FFA with BSA with a magnetic stirrer (for 30 min) • Dilute BSA with 0.1 M NaOH->vehicle control • Cool down to RT, sterile filter, aliquot and freeze. • For a final fatty acid (FA) solution dilute master stock in medium. • Replace medium of liver microtissues with FA-containing medium and incubate 2-7 days.

[5] = tested on: liver endothelial cells (LEC); conditions: 5 days treatment, sub-toxic doses, LEC-coated microtissues
Source text: FIG. 7: Assessment of LEC-specific toxicity.
Spheroidal liver microtissues containing hepatocytes and Kupffer cells were coated with liver endothelial cells (LEC) and subjected to 5 days treatment with sub-toxic doses of Acetaminophen (APAP), Cyclophosphamide and Monocrotaline (FIG. 7). After the treatment, microtissues were collected, formalin fixed and paraffin embedded, sliced and stained by immunohistochemistry for the LEC-marker CD31.

liver microtissues [6] = experiment: ATP measurement after exposure of liver microtissues to free fatty acids; format: cell-based; conditions: increasing concentrations of FFA for 3-14 days; control BSA
Method: FIG. 3A(3): ATP measurements from identical groups after exposure to increasing concentrations of FFA for 3-14 days.
as §1

[7] = tested on: liver MT triple-culture (hepatocyte+inflammatory cells+stellate cells); experiment: Pro-fibrotic gene expression in liver MT triple-culture treated with pro-fibrotic compounds; conditions: co-cultured microtissues, 14 days
Method: MT mRNA was extracted using TRIzol conventional procedure and fold induction were calculated as 2^(−ΔΔCT) for each sample and negative control and expressed as mean fold induction±S.E.M. of three replicates with six MTs each. Actin was used as reference gene for each sample.

[8] = tested on: liver MT triple-culture (hepatocyte+inflammatory cells+stellate cells); experiment: Viability of liver MT triple-culture treated with pro-fibrotic compounds; conditions: co-cultured microtissues, exposure over 14 days

Compound: TNF-α
cellular viability [1]: increased cellular viability
IL-6 gene induction [2]: strongly responsive

Compound: TGF-β1: pro-fibrotic cytokine, fibrosis inducer
fibrotic phenotype, collagen I deposition [3]: severe fibrotic phenotype with collagen deposition
cellular viability [1]: decreased viability
IL-6 gene induction [2]: did not induce
IL-6 gene expression ([2]; co-cultures): observed in co-cultures

Compound: CCCCCCCC/C=C\CCCCCCCC(=O)O [OA, Oleate]
steatosis phenotype (lipid droplets in hepatocytes) (liver microtissues [4]; FIG. 3A1): small lipid droplets (microvesicular steatosis)

Compound: O=P1(N(CCCl)CCCl)NCCCO1 (centres unmarked) [cyclosphosphamide, Cyclophosphamide]
LEC-marker CD31 (immunohistochemistry) [5]: heavily reduced or completely absent
LEC-marker CD31 (immunohistochemistry) ([5]; listed as Cyclosphosphamide): reduced LEC-presence

steatosis phenotype (lipid droplets in hepatocytes) (liver microtissues [4]): rather macrovesicular phenotype
Compound: CCCCCCCCCCCCCCCC(=O)O [PA, palmitic acid]
lipid accumulation in microtissues (liver microtissues [4]): reduced lipid incorporation at concentrations higher than PA3
lipid accumulation in microtissues (liver microtissues [4]; listed as Palmitate): induced lipid accumulation
ATP (liver microtissues [6]): decreased values in microtissues exposed to PA4 and higher

Compound: CC(=N)S [TAA, Thiocetamide]
transcriptional induction of collagen I, collagen IV, fibronectin I and CD44 [7]: greatly enhanced; also recorded: dose-dependent transcriptional induction
MT viability [8]: Dose-dependent loss of viability or metabolic activity; also recorded: dose-dependent decrease

Compound: C[C@H]1C(=O)O[C@@H]2CCN3CC=C(COC(=O)[C@](C)(O)[C@]1(C)O)[C@H]23 [monocrotalin, Monocrotaline]
LEC-marker CD31 (immunohistochemistry) [5]: heavily reduced or completely absent
LEC-marker CD31 (immunohistochemistry) ([5]; listed as Monocrotaline): reduced LEC-presence
